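A five-concentration, 48-hour dose response in 96-well plates underlies each endpoint, interpolated linearly between surrounding concentrations. GI50 is the concentration that inhibits growth by half. TGI: concentration producing complete growth inhibition.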
What was measured:
Assay in all cases: NCI anticancer screen, dose series, 48 h
[1] = test system: 786-0 renal
[2] = test system: A498 renal
[3] = test system: A549 NSCLC
[4] = test system: ACHN renal
[5] = test system: BT-549 breast
[6] = test system: CAKI-1 renal
[7] = test system: COLO 205 colon
[8] = test system: DU-145 prostate
[9] = test system: EKVX NSCLC
[10] = test system: HCC-2998 colon
[11] = test system: HCT-116 colon
[12] = test system: HCT-15 colon
[13] = test system: HL-60(TB) leukemia
[14] = test system: HOP-62 NSCLC
[15] = test system: HOP-92 NSCLC
[16] = test system: HS 578T breast
[17] = test system: HT29 colon
[18] = test system: IGROV1 ovarian
[19] = test system: K-562 leukemia
[20] = test system: KM12 colon
[21] = test system: LOX IMVI melanoma
[22] = test system: M14 melanoma
[23] = test system: MALME-3M melanoma
[24] = test system: MCF7 breast
[25] = test system: MDA-MB-231 breast
[26] = test system: MDA-MB-435
[27] = test system: MOLT-4 leukemia
[28] = test system: NCI-H226 lung
[29] = test system: NCI-H23 lung
[30] = test system: NCI-H460 lung
[31] = test system: NCI-H522 lung
[32] = test system: NCI/ADR-RES ovarian
[33] = test system: OVCAR-3 ovarian
[34] = test system: OVCAR-4 ovarian
[35] = test system: OVCAR-5 ovarian
[36] = test system: OVCAR-8 ovarian
[37] = test system: PC-3 prostate
[38] = test system: RPMI-8226 leukemia
[39] = test system: RXF 393 renal
[40] = test system: SF-268 CNS
[41] = test system: SF-295 CNS
[42] = test system: SF-539 CNS
[43] = test system: SK-MEL-2 melanoma
[44] = test system: SK-MEL-28 melanoma
[45] = test system: SK-MEL-5 melanoma
[46] = test system: SK-OV-3 ovarian
[47] = test system: SN12C renal
[48] = test system: SNB-19 CNS
[49] = test system: SNB-75 CNS
[50] = test system: SR leukemia
[51] = test system: SW-620 colon
[52] = test system: T-47D breast
[53] = test system: TK-10 renal
[54] = test system: U251 CNS
[55] = test system: UACC-257 melanoma
[56] = test system: UACC-62 melanoma
[57] = test system: UO-31 renal
[58] = test system: CCRF-CEM leukemia

Which TGI [1] does the source give for C[N+](C)=C/C=C(\Cl)c1ccc2ccccc2c1 here?
The TGI was 28.9 µM.

What about the TGI [2] of the same compound?
Its TGI is > 100 µM.

And the TGI [3]?
The TGI was > 100 µM.

And the TGI [4]?
The TGI was 28.5 µM.

What about the TGI [5] of the same compound?
The TGI was 38.6 µM.

And the TGI [6]?
Its TGI is 25 µM.

And the TGI [7]?
The TGI was 41.4 µM.

What about the TGI [8] of the same compound?
The TGI was 28.8 µM.

And the TGI [9]?
Its TGI is 60.1 µM.

And the TGI [10]?
The TGI was 20.7 µM.

And the TGI [11]?
The TGI was 9.79 µM.

What about the TGI [12] of the same compound?
The TGI was 11.2 µM.

And the TGI [13]?
Its TGI is 38.5 µM.

And the TGI [14]?
The TGI was 35 µM.

And the TGI [15]?
The TGI was 53.3 µM.

And the TGI [16]?
The TGI was > 100 µM.

What about the TGI [17] of the same compound?
Its TGI is 28.4 µM.

What about the TGI [18] of the same compound?
The TGI was 34.9 µM.

What about the TGI [19] of the same compound?
The TGI was > 33.2 µM.

And the TGI [20]?
Its TGI is 32.3 µM.

What about the TGI [21] of the same compound?
Its TGI is 12.8 µM.

And the TGI [22]?
The TGI was 23.2 µM.

What about the TGI [23] of the same compound?
The TGI was 27.8 µM.

What about the TGI [24] of the same compound?
Its TGI is > 73.4 µM.

And the TGI [25]?
The TGI was 28.8 µM.

What about the TGI [26] of the same compound?
Its TGI is 36 µM.

What about the TGI [27] of the same compound?
Its TGI is 3.67 µM.

What about the TGI [28] of the same compound?
The TGI was 41.4 µM.

And the TGI [29]?
Its TGI is 17.1 µM.

And the TGI [30]?
The TGI was 57.6 µM.

And the TGI [31]?
The TGI was 67.8 µM.

What about the TGI [32] of the same compound?
The TGI was 17.3 µM.

And the TGI [33]?
Its TGI is 13.4 µM.

And the TGI [34]?
The TGI was 11.6 µM.

And the TGI [35]?
Its TGI is 39.8 µM.

And the TGI [36]?
The TGI was 31.6 µM.

And the TGI [37]?
Its TGI is 43.5 µM.

What about the TGI [38] of the same compound?
Its TGI is 14.6 µM.

What about the TGI [39] of the same compound?
Its TGI is 47.9 µM.

What about the TGI [40] of the same compound?
Its TGI is 67 µM.

What about the TGI [41] of the same compound?
Its TGI is 33.8 µM.

What about the TGI [42] of the same compound?
Its TGI is 58.7 µM.

What about the TGI [43] of the same compound?
Its TGI is 59.9 µM.

What about the TGI [44] of the same compound?
Its TGI is 11.1 µM.

What about the TGI [45] of the same compound?
Its TGI is 36.5 µM.

What about the TGI [46] of the same compound?
Its TGI is 38.2 µM.

What about the TGI [47] of the same compound?
Its TGI is 50 µM.

And the TGI [48]?
The TGI was 38.5 µM.

And the TGI [49]?
Its TGI is > 58.2 µM.

And the TGI [50]?
The TGI was 4.26 µM.

What about the TGI [51] of the same compound?
The TGI was 29.2 µM.

And the TGI [52]?
The TGI was 48.3 µM.

And the TGI [53]?
The TGI was 33.4 µM.

And the TGI [54]?
The TGI was 27.8 µM.

What about the TGI [55] of the same compound?
The TGI was 36.8 µM.

And the TGI [56]?
The TGI was 29.9 µM.

What about the TGI [57] of the same compound?
Its TGI is 32.6 µM.

Which results are given for Cn1cc(C2=C(c3cn(CCSC(=N)N)c4ccccc34)C(=O)NC2=O)c2ccccc21?
GI50 [1]: 4.29 µM; TGI [1]: 10.7 µM; GI50 [2]: 4.22 µM; TGI [2]: 8.95 µM; GI50 [3]: 3.94 µM; TGI [3]: 8.18 µM; GI50 [4]: 3.81 µM; TGI [4]: 7.74 µM; GI50 [5]: 4.11 µM; TGI [5]: 8.31 µM; GI50 [6]: 4.47 µM; TGI [6]: 9.25 µM; GI50 [58]: 1.38 µM; TGI [58]: 12.7 µM; GI50 [7]: 1.13 µM; TGI [7]: 4.52 µM; GI50 [8]: 3.94 µM; TGI [8]: 7.81 µM; GI50 [10]: 4.13 µM; TGI [10]: 8.07 µM; GI50 [11]: 1.45 µM; TGI [11]: 5.77 µM; GI50 [12]: 5.21 µM; TGI [12]: 11.9 µM; GI50 [13]: 4.65 µM; TGI [13]: 10 µM; GI50 [14]: 3.81 µM; TGI [14]: 7.98 µM; GI50 [15]: 2.38 µM; TGI [15]: 8.78 µM; GI50 [16]: 3.24 µM; TGI [16]: 10.4 µM; GI50 [17]: 1.31 µM; TGI [17]: 5.28 µM; GI50 [18]: 4.92 µM; TGI [18]: 9.46 µM; GI50 [19]: 1.87 µM; TGI [19]: 6.1 µM; GI50 [20]: 3.13 µM; TGI [20]: 6.57 µM; GI50 [21]: 3.02 µM; TGI [21]: 6.52 µM; GI50 [22]: 3.74 µM; TGI [22]: 8.01 µM; GI50 [23]: 4.08 µM; TGI [23]: 7.83 µM; GI50 [24]: 1.19 µM; TGI [24]: 4.55 µM; GI50 [25]: 4.12 µM; TGI [25]: 8.29 µM; GI50 [26]: 1.73 µM; TGI [26]: 5.25 µM; GI50 [27]: 1.98 µM; TGI [27]: 7.95 µM; GI50 [28]: 4.49 µM; TGI [28]: 12.2 µM; GI50 [29]: 3.53 µM; TGI [29]: 7.92 µM; GI50 [30]: 3.84 µM; TGI [30]: 7.69 µM; GI50 [31]: 1.88 µM; TGI [31]: 5.64 µM; GI50 [32]: 13.2 µM; TGI [32]: 25 µM; GI50 [33]: 3.37 µM; TGI [33]: 6.74 µM; GI50 [34]: 3.88 µM; TGI [34]: 8.96 µM; GI50 [35]: 6.25 µM; TGI [35]: 14.1 µM; GI50 [36]: 3.95 µM; TGI [36]: 8.91 µM; GI50 [37]: 3.51 µM; TGI [37]: 8.4 µM; GI50 [38]: 4.18 µM; TGI [38]: 10.1 µM; GI50 [39]: 3.56 µM; TGI [39]: 8.23 µM; GI50 [40]: 3.91 µM; TGI [40]: 8.18 µM; GI50 [41]: 3.47 µM; TGI [41]: 7.39 µM; GI50 [42]: 3.63 µM; TGI [42]: 7.62 µM; GI50 [43]: 2.79 µM; TGI [43]: 6.22 µM; GI50 [44]: 3.53 µM; TGI [44]: 7.06 µM; GI50 [45]: 3.83 µM; TGI [45]: 7.43 µM; GI50 [46]: 2.79 µM; TGI [46]: 6.56 µM; GI50 [47]: 2.8 µM; TGI [47]: 6.37 µM; GI50 [48]: 4.74 µM; TGI [48]: 10.3 µM; GI50 [49]: 1.49 µM; TGI [49]: 5.84 µM; GI50 [50]: 1.23 µM; TGI [50]: 6.87 µM; GI50 [51]: 3.25 µM; TGI [51]: 7.05 µM; GI50 [52]: 3.24 µM; TGI [52]: 8.25 µM; GI50 [53]: 3.15 µM; TGI [53]: 6.54 µM; GI50 [54]: 2.91 µM; TGI [54]: 6.32 µM; GI50 [55]: 3.85 µM; TGI [55]: 7.79 µM; GI50 [56]: 3.94 µM; TGI [56]: 7.43 µM; GI50 [57]: 3.63 µM; TGI [57]: 7.71 µM
